How the values were obtained:
[1] = test system: InsR (insulin-receptor); assay: Insulin receptor mRNA in OHSC (RT-qPCR); type: cell-based, mice; details: 50 μM for 10 days, P<0.05
Procedure: (§1) FIG. 12. Plots illustrating the effect of Aftin-5 on relative mRNA expression levels of murine insulin-like growth factor-1 receptor (IGF1-R; (A)) and murine insulin receptor (Insr; (B)) in organotypic hippocampal slice cultures (OHSC). OHSC culture media of OHSC were replaced by incubation medium containing Aftin-5 (50 μM; A50) or vehicle (0.1% DMSO; Veh). 10 days later, total mRNA in lysate was isolated and purified, cDNAs were then synthesized from […] of total mRNA. cDNAs were amplified by quantitative RT-PCR and the relative expression of specific genes was normalized to the housekeeping gene HPRT1 (2^−ΔCt) Mann-Whitney tests were performed and *p<0.05 indicates significant differences between Aftin-5 and control conditions. Data expressed as means+/−SEM from q=3 independent experiments with n=4-6 inserts/condition and 10 slices/insert. […]
(§2) The impact of Aftin-5 on gene expression of different biomarkers was determined by measuring mRNA levels of selected BDNF, CREB, PS95, INS Receptor/IGF-1 receptor, IL-1β, IL-6 in OHSC treated chronically with Aftin-5 or in a total brain from mice exposed to Aftin-5 at either 8 or 30 mg/Kg. […] Threshold cycles (Ct) of target gene and cyclophilin A (Ppia−control housekeeping gene) were recorded and gene expression was calculated as 2^−ΔΔCt(ΔΔCt=ΔCttreated−ΔCtcontrol, ΔCt=Cttarget−CtPpia). […]

[2] = Brain and plasma exposure after chronic subcutaneous administration (Alzet osmotic pump); type: in vivo, C57Bl/6J mice; details: C57Bl/6J, mouse, sc, 30 mg/kg, 28 days, mice, read-out: brain/plasma partition coefficient (Kpbrain/plasma)
Procedure: FIG. 5. Plots illustrating the effect of brain and plasma exposure after chronic subcutaneous administration of Aftin-5 to C57B16J mice. Due to short Aftin-5 elimination half-time, C57B1/6J mice were exposed subcutaneously to Aftin-5 (30 mg/kg) or vehicle (DMSO/PEG) during 28 days through an Alzet osmotic pump (pump 1004, Q=0.14 μL/hrs). Plasma was collected at different time points and 28 days after, both brain tissue and plasma were collected. Aftin-5 were extracted and quantified by LC-MS/MS (Quattro Premier). Aftin-5 concentrations in plasma (A) and brain (B) were expressed in nM. Data expressed as means+/−SEM from one experiment with n=4-5 mice/condition.
C57B1 were exposed subcutaneously to Aftin-5 using osmotic minipumps ([…]; Saint-Germain-Nuelles, France). Aftin-5 was dissolved in DMSO:propylene glycol:ethanol (45:45:10). Mice were treated with 1, 3 or 30 mg/Kg for 28 days. Filled pumps were left in saline overnight at 37° C. for priming. Mice were anesthetized with isoflurane (3-4% v/v, 1.5 mL/min) in an induction chamber and maintained under anesthesia through a mask. Mice were shaved on their back, disinfected and an incision made between the scapulae for pump implantation and finally closed with clips. 1% lidocaine gel was applied over the incision for local analgesia. Animals recovered from anesthesia in heated pads and immediately returned to the cages.

[3] = test system: PSD95; assay: PSD95 mRNA in OHSC (RT-qPCR); type: cell-based; details: OHSCs from WT mice, 50 μM, 10 days
Procedure: FIG. 15. Plots illustrating the effect of Aftin-5 on relative mRNA expression levels of Long Term Potentialisation (LTP) biomarkers, i.e CREB (A), PSD95 (B) and BDNF (C) in C57B16J OHSC mice treated chronically with Aftin-5. OHSC culture media of OHSC were replaced by incubation medium containing Aftin-5 (50 μM; A50) or vehicle (0.1% DMSO; Veh). 10 days later, total mRNA in lysate was isolated and purified, cDNAs were then synthesized from […] of total mRNA. cDNAs were amplified by quantitative RT-PCR and the relative expression of specific genes was normalized to the housekeeping gene HPRT1 (2^—ΔCt). […] Data expressed as means+/−SEM from q=3 independent experiments with n=4-6 inserts/condition and 10 slices/insert. […]
The impact of Aftin-5 on gene expression of different biomarkers was determined by measuring mRNA levels of selected BDNF, CREB, PS95, INS Receptor/IGF-1 receptor, IL-1β, IL-6 in OHSC treated chronically with Aftin-5 or in a total brain from mice exposed to Aftin-5 at either 8 or 30 mg/Kg. […] RNA concentration was measured spectrophotometrically at 260 nm in a NanoDrop 2000c (Thermo Scientific, Villebon-sur-Yvette, France) (sample A260 nm/A280 nm ratios over 1.8 indicated reduced genomic DNA contamination). cDNAs were synthesized from 0.5 μg of total RNA with RT^2 First Strand kit (Qiagen, Courtaboeuf, France) according to the manufacturer's protocol and stored at −80° C. […]

[4] = test system: IGF-1R (insulin growth factor receptor 1); assay: IGF-1R mRNA in OHSC (RT-qPCR); type: cell-based, mice; details: 50 μM for 10 days, P=0.0845
Procedure: as §1, §2

[5] = test system: IL-6; assay: IL-6 mRNA in OHSC (RT-qPCR); type: cell-based, mice; details: 50 μM, 10 days, vs vehicle, P=0.06
Procedure: as §1, with “FIG. 10.” for “FIG. 12.”, “of interleukin-1-beta (IL-1β; (A)), interleukin-6 (IL-6; (B)), TNF-alpha (TNFα; (C))” for “of murine insulin-like growth factor-1 receptor (IGF1-R; (A))”, “and interleukin-10 (IL-10; (D))” for “and murine insulin receptor (Insr; (B))”, “[…]” for “of OHSC”, “HPRT1 (2^−ΔCt).” for “HPRT1 (2^−ΔCt)”, “and ***p<0.001” for “and *p<0.05”
as §2

## CC[C@H](CO)Nc1nc(N(C)c2ccccc2)c2ncn(C(C)C)c2n1 [Aftin-5]
[1]
  InsR-mRNA: increased dramatically
[2]
  Kp at 672 h: ~0.44
[3]
  PSD95 mRNA: transcriptional upregulation
[4]
  IGF-1R mRNA: tend to increase
[5]
  IL-6 mRNA synthesis: do not achieve significance
